Results published in ChEMBL document CHEMBL1143607, “Pyridinium-1-yl bisphosphonates are potent inhibitors of farnesyl diphosphate synthase and bone resorption” (J Med Chem, 2005).

Key:
[1] = species on record: Mus musculus; assay: In vitro inhibitory concentration against bone resorption in 17 day old fetal mouse metatarsals; format: functional
[2] = Effective concentration against human Gamma delta T cells; format: functional, cell-based; settings: t-cell
[3] = system: Dictyostelium discoideum; assay: Inhibitory concentration against Dictyostelium discoideum cell growth; format: functional, organism-based, Fungi

| SMILES | IC50 [1] | EC50 [2] | IC50 [3] |
| --- | --- | --- | --- |
| NCCC(O)(P(=O)(O)O)P(=O)(O)O [PAMIDRONIC ACID] | 1600 nM | 43 µM | – |
| Nc1c[n+](CC(P(=O)([O-])O)P(=O)(O)O)ccn1 (stereo unspecified) | 220 nM | – | – |
| O=P([O-])(O)C(O)(C[n+]1ccc(Cc2ccccc2)cc1)P(=O)(O)O (stereo unspecified) | – | 150 µM | 12 µM |
| O=P(O)(O)C(O)(Cn1ccnc1)P(=O)(O)O [ZOLEDRONIC ACID] | 34 nM | 5.4 µM | 2.9 µM |
| COc1ccc[n+](CC(O)(P(=O)([O-])O)P(=O)(O)O)c1 (stereo unspecified) | 370 nM | 9.3 µM | 6 µM |
| O=P([O-])(O)C(O)(C[n+]1cccc(Cc2ccccc2)c1)P(=O)(O)O (stereo unspecified) | – | 91 µM | 11 µM |
| Cc1cccc(Cc2ccc[n+](CC(O)(P(=O)([O-])O)P(=O)(O)O)c2)c1 (stereo unspecified) | – | 44 µM | 9.2 µM |
| O=P([O-])(O)C(O)(C[n+]1ccc2ccccc2c1)P(=O)(O)O (stereo unspecified) | – | 30 µM | 20 µM |
| O=P(O)(O)C(O)(Cc1cccnc1)P(=O)(O)O [RISEDRONIC ACID] | 300 nM | 5 µM | – |
| NCCCC(O)(P(=O)(O)O)P(=O)(O)O [ALENDRONIC ACID] | 290 nM | 32 µM | – |
| O=P([O-])(O)C(O)(C[n+]1cccc2cc(Cl)ccc21)P(=O)(O)O (stereo unspecified) | – | 56 µM | 72 µM |

Continued, in another order:

| IC50 [1] | EC50 [2] | SMILES | IC50 [3] |
| --- | --- | --- | --- |
| – | 2.5 µM | O=P([O-])(O)C(O)(C[n+]1cccc(-c2ccc(O)cc2)c1)P(=O)(O)O (stereo unspecified) | 2.9 µM |
| 75 nM | 2.7 µM | O=P([O-])(O)C(O)(C[n+]1cccc(F)c1)P(=O)(O)O (stereo unspecified) | 4.6 µM |
| – | 4.4 µM | CCc1ccc[n+](CC(O)(P(=O)([O-])O)P(=O)(O)O)c1 (stereo unspecified) | 5.6 µM |
| – | 4.3 µM | CCCCc1ccc[n+](CC(O)(P(=O)([O-])O)P(=O)(O)O)c1 (stereo unspecified) | 2.9 µM |
| 220 nM | 4.5 µM | Cc1ccc[n+](CC(O)(P(=O)([O-])O)P(=O)(O)O)c1 (stereo unspecified) | 1.5 µM |
| 410 nM | 4.1 µM | O=P([O-])(O)C(O)(C[n+]1cccc(-c2ccccc2)c1)P(=O)(O)O (stereo unspecified) | 3.8 µM |
| 670 nM | 4.8 µM | O=P([O-])(O)C(O)(C[n+]1ccccc1)P(=O)(O)O (stereo unspecified) | 2.1 µM |
